Patent US20040019027A1, “Method of treating cerebrotendinous xanthomatosis” (priority 2002, published 2004)

Key:
[1] = system: PXR target genes cyp3a11, cyp2c, and oatp2; test: Northern analysis of PXR target genes in primary mouse hepatocytes; type: cell-based; conditions: 10 μM, 24 h, FIG. 5
Protocol: Primary mouse hepatocytes were treated with compounds (10 μM), and Northern analysis was performed using the probes as described in Example III.
Additionally, a Northern blot analysis of PXR target genes can be used to determine whether or not a molecule or compound is a PXR agonist. […] In this approach, hepatocytes are isolated, cultured in vitro, and exposed to a molecule or compound suspected to be a PXR agonist. Total RNA of the hepatocytes is isolated and subject to Northern blot analysis with probes of PXR target genes' fragments. The PXR target genes have transcriptional regulatory regions that interact with the DNA binding domain of a PXR. When a PXR agonist interacts or binds to the ligand binding domain of a PXR, the DNA binding domain of a PXR interacts with the transcriptional regulatory region of the target genes and activates the expression of the target genes. Consequently, an enhanced expression of target genes is observed in the Northern blot analysis. Commonly used target genes' fragments include cyp3a11, nucleotides from #1,065 to #1,569 of GenBank accession no. X60452; cyp2c, nucleotides from #787 to #1,193 of GenBank accession no. AK008580; and oatp2, nucleotides 2,124-2,486 of GenBank accession no. NM_021471. gapdh, nucleotides from #590 to #1,089 of GenBank accession no. NM_008094, is used as a control since gapdh is not regulated by the activation of a PXR. […]

mouse PXR = target: T1, mouse PXR (Mus musculus, UniProt O54915); test: GAL-mouse PXR luciferase reporter gene assay in transfected CV-1 cells; type: cell-based; conditions: 10 μM; CV-1 cells; FIG. 3(a), FIG. 8(a)
T1 sequence (O54915 104-431): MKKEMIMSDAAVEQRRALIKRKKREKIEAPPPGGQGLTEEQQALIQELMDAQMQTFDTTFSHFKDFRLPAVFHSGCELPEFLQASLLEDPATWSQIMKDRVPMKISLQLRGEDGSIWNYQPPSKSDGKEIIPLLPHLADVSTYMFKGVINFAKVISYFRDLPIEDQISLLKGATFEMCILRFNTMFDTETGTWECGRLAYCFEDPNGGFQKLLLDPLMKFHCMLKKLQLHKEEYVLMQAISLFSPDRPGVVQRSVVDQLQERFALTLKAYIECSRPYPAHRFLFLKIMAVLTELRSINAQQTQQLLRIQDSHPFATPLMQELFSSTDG
Protocol: CV-1 cells were transiently transfected with a GAL-mouse PXR expression vector, a GAL4 reporter construct, and a β-galactosidase vector as an internal control. Where noted, the bile acid transporter NTCP was added to the transfection to promote the transport of membrane-impermeable bile acids. Transfected cells were exposed to the indicated compounds (10 μM each), and fold activation was determined using luciferase and β-galactosidase enzyme activity assays. […] The transfected CV-1 cells were treated with multiple concentrations of each sterol. Error bars in this figure and subsequent figures represent the standard error of the mean (SEM) from representative experiments.
It is questioned whether β-cholestane-3α, 7α, 12α-triol (Triol) levels were elevated in whole liver extracts from CYP27 −/− mice. To show the level of 5β-cholestane-3α, 7α, 12α-triol in mouse liver extract, wild-type or CYP27 −/−mouse liver tissue (0.5 g) was extracted with 7.5 ml of ethyl acetate/methanol (2:1, vol/vol) along with 5β-cholestane-3β,5α,6β-triol (25 μg) as an internal control for extraction efficiency. […] The extraction was repeated three times, and the organic fraction was pooled and evaporated. To remove the vast excess of cholesterol that interferes with subsequent gas chromatography-mass spectroscopy analysis, the evaporated residue was dissolved in 0.5 ml of chloroform/acetone (35:25, vol/vol) and applied to a Bond Elut SI cartridge (Varian, 500 mg). Cholesterol was removed by washing with 6 ml of chloroform/acetone (35:25, vol/vol), and sterols were eluted with 7 ml of chloroform/acetone/methanol (35:25:20, vol/vol/vol). The sterol fraction was evaporated and dissolved in acetonitrile, and a portion was silylated with N,O-bis(trimethylsilyl)-trifluoroacetamide containing 1% trimethylchlorosilane (Pierce). The silylated material was analyzed by using a Shimadzu model GC-17A gas chromatograph with a QP5000 mass spectral detector and a Hewlett-Packard Ultra 2 (cross-linked-siloxane) column. The injector port was kept at 250° C., interface temperature was kept at 280° C., and oven temperature was kept at 50° C. followed by a gradient of 30° C. min^−1 up to 300° C. The electron impact ionization source was at 70 eV. 5β-cholestane-3α, 7α, 12α-triol levels were determined by comparison to a standard curve. For transfection studies, the sterol fraction was dissolved in DMSO and added to the cell-culture media. containing DMEM with 10% delipidated FBS.

## CC(=O)[C@H]1[C@H](C#N)C[C@H]2[C@@H]3CC=C4C[C@@H](O)CC[C@]4(C)[C@H]3CC[C@@]21C [PCN, pregnenolone-16α-carbonitrile]
[1]
  induction of PXR target genes cyp3a11, cyp2c, oatp2 (in words): activated expression of the PXR target genes cyp3a11, cyp2c, and oatp2
Mouse PXR
  activation of GAL-mouse PXR (in words): very effective agonist
